# Columns and labels:
# [1] = Acute toxicity in BALB/c mouse assessed as animal survival at 600 mg/kg,ip observed after 14 days; type: organism-based; conditions: in vivo, time 14 day
# [2] = Toxicity in BALB/c mouse xenografted with human HeLa cells assessed as histopathological change in kidney at 15 to 60 mg/kg,ip once daily for 14 days by hematoxylin and eosin staining analysis; type: organism-based; conditions: in vivo, 336 h, dose 15-60 mg/kg, time 14 day
# [3] = Acute toxicity in female BALB/c mouse assessed as animal death at 200 to 1000 mg/kg,ip observed after 3 days; type: organism-based; conditions: in vivo, 72 h, dose 200-1000 mg/kg, time 3 day
# [4] = Acute toxicity in BALB/c mouse assessed as lethal dose at ip administration observed after 14 days; type: organism-based; conditions: in vivo, time 14 day
# [5] = Acute toxicity in female BALB/c mouse assessed as animal death at 200 to 1000 mg/kg,ip observed for 4 to 15 days; type: organism-based; conditions: in vivo, dose lower 200 mg/kg, time lower 4 day, dose upper 1000 mg/kg, time upper 15 day
# [6] = Acute toxicity in BALB/c mouse assessed as animal survival at 200 mg/kg,ip observed after 14 days; type: organism-based; conditions: in vivo, time 14 day
# MCF7 = assay: Antiproliferative activity against human MCF7 cells assessed as inhibition of cell growth incubated for 48 hrs by CCK-8 assay; type: functional, cell-based; conditions: Homo sapiens, MCF7, 48 h
# [7] = Acute toxicity in BALB/c mouse assessed as animal survival at 1000 mg/kg,ip observed after 14 days; type: organism-based; conditions: in vivo, time 14 day
# [8] = Toxicity in BALB/c mouse xenografted with human HeLa cells assessed as histopathological change in lung at 15 to 60 mg/kg,ip once daily for 14 days by hematoxylin and eosin staining analysis; type: organism-based; conditions: in vivo, 336 h, dose 15-60 mg/kg, time 14 day
# [9] = Acute toxicity in BALB/c mouse assessed as animal survival at 800 mg/kg,ip observed after 14 days; type: organism-based; conditions: in vivo, time 14 day
# [10] = Toxicity in BALB/c mouse xenografted with human HeLa cells assessed as histopathological change in liver at 15 to 60 mg/kg,ip once daily for 14 days by hematoxylin and eosin staining analysis; type: organism-based; conditions: in vivo, 336 h, dose 15-60 mg/kg, time 14 day
# [11] = Acute toxicity in male BALB/c mouse assessed as animal death at 200 to 400 mg/kg,ip observed after 1 day; type: organism-based; conditions: in vivo, 24 h, dose 200-400 mg/kg
# [12] = Acute toxicity in male BALB/c mouse assessed as animal death at 200 to 1000 mg/kg,ip observed after 3 days; type: organism-based; conditions: in vivo, 72 h, dose 200-1000 mg/kg, time 3 day
# [13] = Acute toxicity in female BALB/c mouse assessed as animal death at 200 to 400 mg/kg,ip observed after 1 day; type: organism-based; conditions: in vivo, 24 h, dose 200-400 mg/kg
# [14] = Toxicity in BALB/c mouse xenografted with human HeLa cells assessed as histopathological change in spleen at 15 to 60 mg/kg,ip once daily for 14 days by hematoxylin and eosin staining analysis; type: organism-based; conditions: in vivo, 336 h, dose 15-60 mg/kg, time 14 day
# [15] = Acute toxicity in BALB/c mouse assessed as animal survival at 400 mg/kg,ip observed after 14 days; type: organism-based; conditions: in vivo, time 14 day
# [16] = Acute toxicity in male BALB/c mouse assessed as animal death at 200 to 600 mg/kg,ip observed after 2 day; type: organism-based; conditions: in vivo, 48 h, dose 200-600 mg/kg
# [17] = Half life in BALB/c mouse plasma at 10 to 200 uM; type: ADME, cell-free; conditions: dose 10-200 µM
# HeLa [18] = assay: Antiproliferative activity against human HeLa cells assessed as inhibition of cell growth incubated for 48 hrs by CCK-8 assay; type: functional, cell-based; conditions: hela
# [19] = Toxicity in BALB/c mouse xenografted with human HeLa cells assessed as change in body weight at 15 to 60 mg/kg,ip once daily for 14 days; type: organism-based; conditions: in vivo, 336 h, dose 15-60 mg/kg, time 14 day
# [20] = Acute toxicity in female BALB/c mouse assessed as animal death at 200 to 600 mg/kg,ip observed after 2 day; type: organism-based; conditions: in vivo, 48 h, dose 200-600 mg/kg
# [21] = Toxicity in BALB/c mouse xenografted with human HeLa cells assessed as histopathological change in heart at 15 to 60 mg/kg,ip once daily for 14 days by hematoxylin and eosin staining analysis; type: organism-based; conditions: in vivo, 336 h, dose 15-60 mg/kg, time 14 day
# HeLa [22] = assay: Induction of apoptosis in human HeLa cells at 2 to 8 uM incubated for 48 hrs by annexin V-FITC/PI staining based flow cytometry relative to control; type: functional; conditions: dose 2-8 µM
# A549 = assay: Antiproliferative activity against human A549 cells assessed as inhibition of cell growth incubated for 48 hrs by CCK-8 assay; type: functional, cell-based; conditions: Homo sapiens, A549, 48 h
# [23] = Acute toxicity in female BALB/c mouse assessed as animal death at 1000 mg/kg,ip observed after 2 day; type: organism-based; conditions: in vivo, 48 h
# [24] = Acute toxicity in male BALB/c mouse assessed as animal death at 200 to 1000 mg/kg,ip observed for 4 to 15 days; type: organism-based; conditions: in vivo, dose lower 200 mg/kg, time lower 4 day, dose upper 1000 mg/kg, time upper 15 day
# PANC-1 = assay: Antiproliferative activity against human PANC-1 cells assessed as inhibition of cell growth incubated for 48 hrs by CCK-8 assay; type: functional, cell-based; conditions: panc-1
# HCT-116 = assay: Antiproliferative activity against human HCT-116 cells assessed as inhibition of cell growth incubated for 48 hrs by CCK-8 assay; type: functional, cell-based; conditions: Homo sapiens, HCT-116, 48 h
# HepG2 = assay: Antiproliferative activity against human HepG2 cells assessed as inhibition of cell growth incubated for 48 hrs by CCK-8 assay; type: functional, cell-based; conditions: Homo sapiens, HepG2, 48 h
structure (smiles),measurement,setting,value
CCOC(=O)C[C@H]1CSC[C@]1(C(=O)OCC)n1cnc2c(Cl)nc(Cl)nc21 (racemic),survival at 336 h,[1],50%
same,Activity,[2],Non-Toxic
same,Activity,[3],Non-Toxic
same,LD50 at 336 h,[4],613 mg/kg
same,Activity,[5],Non-Toxic
same,survival at 336 h,[6],100%
same,IC50,MCF7,5.54 µM
same,survival at 336 h,[7],0%
same,Activity,[8],Non-Toxic
same,survival at 336 h,[9],10%
same,Activity,[10],Non-Toxic
same,Activity,[11],Non-Toxic
same,Activity,[12],Non-Toxic
same,Activity,[13],Non-Toxic
same,Activity,[14],Non-Toxic
same,survival at 336 h,[15],100%
same,Activity,[16],Non-Toxic
same,half-life at up to 200 µM,[17],180 min
same,IC50,HeLa [18],2800 nM
same,Activity,[19],Non-Toxic
same,Activity,[20],Non-Toxic
same,Activity,[21],Non-Toxic
same,Activity,HeLa [22],8.05%
same,IC50,A549,46 µM
same,Activity,[23],Non-Toxic
same,Activity,[24],Non-Toxic
same,IC50,PANC-1,13 µM
same,IC50,HCT-116,3.82 µM
same,IC50,HepG2,32.7 µM

# Reference: ChEMBL document CHEMBL5523757, “Discovery, Synthesis, and Activity Evaluation of Novel Five-Membered Sulfur-Containing Heterocyclic Nucleosides as Potential Anticancer Agents In Vitro and In Vivo” (J Med Chem, 2024)
